Assay results taken from patent US20040110718A1, “Anti-HCV nucleoside derivatives” (priority 2000, published 2004).

tested on: HCV replicon RNA replication; test: HCV replicon assay (quantification of replicon RNA, Northern blot / Taqman kinetic PCR); type: cell-based; settings: Hepatitis C virus, Huh-7, 72 h
Procedure: Assay Method: The activity of the compounds was assayed using an adaptation of the method reported by Lohmann et al [V. Lohmann et al., Science, 1999, 285, 110-113].
The HCV replicon-containing cell line is used for the identification of small molecules that are able to inhibit the replication of the replicon RNA. Since the replicon RNA replication mimics the replication of the HCV RNA in infected hepatocytes, it is believed that those small molecules that have the above property are interesting for further development as anti-HCV drugs.
The inhibition of the HCV replicon RNA replication will lead to a decrease of the replicon RNA in the cell, which can be measured using a method that specifically quantifies this RNA.
Northern blot: One method for quantification of this RNA uses the standard Northern blot known to any person skilled in the art.
Kinetic PCR: A second assay for the quantification of replicon RNA is based on the amplification of the replicon RNA that remains in the cell, after incubation of the cells with a proper concentration of the small molecules. This method involves the reverse transcription of the replicon RNA to the corresponding complementary DNA (cDNA), followed by amplification of the cDNA using the Taqman Kinetic PCR technology (PE Biosystems). This consists of hybridisation of the cDNA with a complementary reporter oligonucleotide (probe), containing a combined fluorescent dye and a quencher dye. Amplification of the DNA sequence containing the hybridised reporter probe, using flanking oligonucleotide primers will lead to the separation of the fluorescent dye from the quencher dye. This will result in an increase of the fluorescence during each amplification cycle.
The neomycin phosphotransferase gene sequence that is present in the replicon RNA was chosen for amplification using specifically designed oligonucleotide primers. To control for (a) cell number that can vary depending on the toxicity or cytostatic effect of the small molecules, and (b) for errors during total RNA extraction, amplification of the host β-actin gene is used for normalisation.
The accumulation of the PCR products during the reaction is monitored directly by measuring the increase in fluorescence of the reporter dye. The amount of HCV replicon RNA (and β-actin RNA) originally present in the total RNA extracted from the cells is then expressed as a threshold cycle, e.g. the cycle at which there is a statistically significant increase in the fluorescence above the background.
For this procedure, HCV replicon-containing human hepatoma Huh7 cells (9-13) in growth medium (DMEM) containing 5% FCS are plated in a 96-well plate at 5×10^3 cells per well, and the plate incubated overnight. 24 hours later, different dilutions in 0.1 ml growth medium of chemical compounds were added to the wells, and the plate further incubated at 37° C. for three days. Total RNA coming from each well is extracted using the RNeasy™ procedure (Qiagen manufacturer instructions), and the total RNA is eluted in a final volume of 0.13 ml. Next, a 2 μl sample of the total RNA is used for convertion into cDNA using a reverse transcription (RT) step. A RT mastermix containing 1 μl 10× Taqman RT buffer, 2.2 μl 25 mM MgCl2 (5.5 mM final conc.), 2 μl dNTP mix (500 μM each), 0.5 μl random hexamer primers (2.5 μM), 0.2 μl RNase inhibitor (0.4 u/μl ), 0.25 μl RT (1.25 u/μl ), 1.85 μl H2O, was distributed in a 96-well plate and 2 μl total RNA was added to each well.
The RT reaction is performed by incubation of the plate 10 min at 25° C., 30 min at 48° C., 5 min at 95° C. and cooling to 4° C. The cDNA samples are then stored at −20° C. or directly used for the PCR reaction. […]

| SMILES | IC50 |
| --- | --- |
| Nc1ncnc2c1nc(Br)n2[C@@H]1O[C@H](CO)[C@@H](O)[C@H]1O [Example 10, 8-Bromoadenosine] | 3.6 µM |
| OC[C@H]1O[C@@H](n2cnc3c(Cl)ncnc32)[C@H](O)[C@@H]1O [Example 19, 6-Chloro-9-(β-D-ribofuranosyl)purine] | 14 µM |
| C=CCNc1ncnc2c1ncn2[C@@H]1O[C@H](CO)[C@@H](O)[C@H]1O [Example 80, 6-(2-Propenyl)amino-9-(β-D-ribofuranosyl)purine] | 5.7 µM |

same assay, conditions: Hepatitis C virus, Huh-7, 72 h; HCV replicon-containing human hepatoma Huh7 cells (9-13), three days incubation; concentration reducing replicon RNA levels by 50%; read-out: IC50

| SMILES | IC50 |
| --- | --- |
| CN(C)c1ncnc2c1ncn2[C@@H]1O[C@H](CO)[C@@H](O)[C@H]1O [Example 1, 6-Dimethylamino-9-(β-D-ribofuranosyl)purine] | 0.6 µM |
| Nc1c2ncn([C@@H]3O[C@H](CO)[C@@H](O)[C@H]3O)c2nc[n+]1[O-] [Example 7, Adenosine-1-oxide] | 2 µM |
| CSc1ncnc2c1ncn2[C@@H]1O[C@H](CO)[C@@H](O)[C@H]1O [Example 16, 6-Methylthio-9-(β-D-ribofuranosyl)purine] | 0.08 µM |
| O=c1[nH]c(=O)n([C@@H]2O[C@H](CO)[C@@H](O)[C@H]2O)cc1F [Example 24, 5-Fluorouridine] | 1.4 µM |
| OC[C@H]1O[C@@H](n2cnc3c(N4CCc5ccccc5C4)ncnc32)[C@H](O)[C@@H]1O [Example 57, 9-(β-D-Ribofuranosyl)-6-(1,2,3,4-tetrahydro-2-isoquinolyl)purine] | 0.1 µM |
| OC[C@H]1O[C@@H](n2cnc3c(N4CCCC4)ncnc32)[C@H](O)[C@@H]1O [Example 77, 6-(1-Pyrrolidinyl)-9-(β-D-ribofuranosyl)purine] | 2.6 µM |
| C#CCNc1ncnc2c1ncn2[C@@H]1O[C@H](CO)[C@@H](O)[C@H]1O [Example 81, 6-(2-Propynyl)amino-9-(β-D-ribofuranosyl)purine] | 3.8 µM |
| N=c1c2ncn([C@@H]3O[C@H](CO)[C@@H](O)[C@H]3O)c2ncn1Cc1ccccc1 [Example 93, 1-Benzyl-6-imino-9-(β-D-ribofuranosyl)purine] | 4.5 µM |
| OC[C@H]1O[C@@H](n2cnc3c(-n4cccc4)ncnc32)[C@H](O)[C@@H]1O [Example 105, 6-(1-Pyrrolyl)-9-(β-D-ribofuranosyl)purine] | 0.1 µM |
| OC[C@H]1O[C@@H](n2cnc3c(-n4ccnc4)ncnc32)[C@H](O)[C@@H]1O [Example 111, 6-(1-Imidazolyl)-9-(β-D-ribofuranosyl)purine] | 6.2 µM |
| OC[C@H]1O[C@@H](n2cnc3c(-n4cncn4)ncnc32)[C@H](O)[C@@H]1O [Example 112, 9-(β-D-Ribofuranosyl)-6-(1,2,4-triazol-1-yl)purine] | 4.4 µM |
| OC[C@H]1O[C@@H](n2cnc3c(-n4cccn4)ncnc32)[C@H](O)[C@@H]1O [Example 113, 6-(1-Pyrazolyl)-9-(β-D-ribofuranosyl)purine] | 4.4 µM |
| O=c1[nH]/c(=N/O)ccn1[C@@H]1O[C@H](CO)[C@@H](O)[C@H]1O [Example 239, 4-oximino-1-(β-D-ribofuranosyl)pyrimidin-2(1H)-one] | 1.3 µM |
| Nc1ccn([C@@H]2O[C@H](CO)[C@@H](O)C2(F)F)c(=O)n1 [Example 243, 1-(2-deoxy-2,2-difluoro-β-D-erythropentofuranosyl)cytosine] | 0.07 µM |
| Nc1ccn([C@H]2O[C@@H](CO)[C@H](O)[C@@H]2O)c(=O)n1 [Example 244, L-cytidine] | 10 µM |

tested on: not given; test: not given; settings: not given

| melting point | SMILES |
| --- | --- |
| 229 °C | OC[C@H]1O[C@@H](n2cnc3c(N4CCCC4)nc(Cl)nc32)[C@H](O)[C@@H]1O |
| 212 to 213 °C | OC[C@H]1O[C@@H](n2cnc3c(-n4cccc4)ncnc32)[C@@H](O)[C@@H]1O |
| 175 to 176 °C | OC[C@@H]1C[C@@H](O)[C@H](n2cnc3c(-n4cccc4)ncnc32)O1 |
| 114 to 115 °C | OC[C@@H]1O[C@H](n2cnc3c(-n4cccc4)ncnc32)[C@@H](O)[C@H]1O |
| 207 to 209 °C (dec.) | Nc1ncnc2c1nc(N1CCCCC1)n2[C@@H]1O[C@H](CO)[C@@H](O)[C@H]1O |
| 180 to 183 °C | Nc1ncnc2c1nc(NCCCc1ccccc1)n2[C@@H]1O[C@H](CO)[C@@H](O)[C@H]1O |
| 210 to 213 °C | Nc1ncnc2c1nc(N1CCOCC1)n2[C@@H]1O[C@H](CO)[C@@H](O)[C@H]1O |
| 118 to 120 °C | CN(CCc1ccccc1)c1nc2c(N)ncnc2n1[C@@H]1O[C@H](CO)[C@@H](O)[C@H]1O |
| 235 to 237 °C (dec.) | Nc1ncnc2c1nc(NCc1cccnc1)n2[C@@H]1O[C@H](CO)[C@@H](O)[C@H]1O |
| 145 to 150 °C (dec.) | Nc1ncnc2c1nc(N1CCc3ccccc3C1)n2[C@@H]1O[C@H](CO)[C@@H](O)[C@H]1O |
| 210 to 215 °C | Nc1ncnc2c1nc(NCCN1CCOCC1)n2[C@@H]1O[C@H](CO)[C@@H](O)[C@H]1O |
| 203 to 205 °C | Nc1ncnc2c1nc(NCCC1CCCCC1)n2[C@@H]1O[C@H](CO)[C@@H](O)[C@H]1O |
| 117 to 124 °C (dec.) | Cc1ccc(CCNc2nc3c(N)ncnc3n2[C@@H]2O[C@H](CO)[C@@H](O)[C@H]2O)cc1 |
| 225 to 228 °C | Cn1cccc1CCNc1nc2c(N)ncnc2n1[C@@H]1O[C@H](CO)[C@@H](O)[C@H]1O |
| 157 to 163 °C (dec.) | Nc1ncnc2c1nc(NCCc1ccc(S(N)(=O)=O)cc1)n2[C@@H]1O[C@H](CO)[C@@H](O)[C@H]1O |
| 220 to 223 °C (dec.) | Nc1ncnc2c1nc(N1CCN(c3ccccc3)CC1)n2[C@@H]1O[C@H](CO)[C@@H](O)[C@H]1O |
| 148 to 156 °C (dec.) | Nc1ncnc2c1nc(NCCc1c[nH]cn1)n2[C@@H]1O[C@H](CO)[C@@H](O)[C@H]1O |

| melting point | SMILES |
| --- | --- |
| 140 to 150 °C | Nc1ncnc2c1nc(NCc1cccc3ccccc13)n2[C@@H]1O[C@H](CO)[C@@H](O)[C@H]1O |
| 262 to 265 °C (dec.) | Nc1ncnc2c1nc(NCCc1ccc(O)cc1)n2[C@@H]1O[C@H](CO)[C@@H](O)[C@H]1O |
| 190 °C | Nc1ncnc2c1nc(NCCCCc1ccccc1)n2[C@@H]1O[C@H](CO)[C@@H](O)[C@H]1O |
| 155 to 158 °C (dec.) | Nc1ncnc2c1nc(NCCc1ccc(Cl)cc1)n2[C@@H]1O[C@H](CO)[C@@H](O)[C@H]1O |
| 164 to 168 °C (dec.) | Nc1ncnc2c1nc(NCCc1ccc(Cl)cc1Cl)n2[C@@H]1O[C@H](CO)[C@@H](O)[C@H]1O |
| 234 to 237 °C (dec.) | C=CCNc1nc2c(N)ncnc2n1[C@@H]1O[C@H](CO)[C@@H](O)[C@H]1O |
| 165 to 167 °C | Nc1ncnc2c1nc(NCCCCCCc1ccccc1)n2[C@@H]1O[C@H](CO)[C@@H](O)[C@H]1O |
| 192 to 195 °C | Nc1ncnc2c1nc(NCCc1ccccc1)n2[C@H]1C[C@H](O)[C@@H](CO)O1 |
| 198 to 201 °C | Nc1ncnc2c1nc(NCCCc1ccccc1)n2[C@H]1C[C@H](O)[C@@H](CO)O1 |
| 132 to 134 °C | Nc1ncnc2c1nc(NCc1ccccc1)n2[C@H]1C[C@H](O)[C@@H](CO)O1 |
| 168 to 171 °C | Nc1ncnc2c1nc(NCCCCc1ccccc1)n2[C@H]1C[C@H](O)[C@@H](CO)O1 |
| 159 to 161 °C | Nc1ncnc2c1nc(NCCCCCCc1ccccc1)n2[C@H]1C[C@H](O)[C@@H](CO)O1 |
| 187 to 190 °C | Nc1nc(-c2ccccc2)c2ncn([C@@H]3O[C@H](CO)[C@@H](O)[C@H]3O)c2n1 |
| 180 to 181 °C | CCc1cn([C@@H]2O[C@H](CO)[C@@H](O)[C@H]2O)c(=O)[nH]c1=O |
| 206 to 207 °C | O=c1ccn([C@@H]2O[C@H](CO)[C@@H](O)[C@H]2Cl)c(=O)[nH]1 |
| 194 to 195 °C | O=c1ccn([C@@H]2O[C@H](CO)[C@@H](O)[C@H]2Br)c(=O)[nH]1 |
